The test system of data set [1] is HCCLM3. Description: Induction of apoptosis in human HCCLM3 cells assessed as increase in Cleaved caspase-3 expression at 25 uM by measured up to 48 hrs Western blot analysis. The note with it: time hrs <=48. It is filed as functional, cell-based. A general note: A western blot detects proteins with antibodies after separation by electrophoresis.
Data set [2] addresses T1, Signal transducer and activator of transcription 5A (Homo sapiens) (UniProt P42229).
T1 sequence (whole entry): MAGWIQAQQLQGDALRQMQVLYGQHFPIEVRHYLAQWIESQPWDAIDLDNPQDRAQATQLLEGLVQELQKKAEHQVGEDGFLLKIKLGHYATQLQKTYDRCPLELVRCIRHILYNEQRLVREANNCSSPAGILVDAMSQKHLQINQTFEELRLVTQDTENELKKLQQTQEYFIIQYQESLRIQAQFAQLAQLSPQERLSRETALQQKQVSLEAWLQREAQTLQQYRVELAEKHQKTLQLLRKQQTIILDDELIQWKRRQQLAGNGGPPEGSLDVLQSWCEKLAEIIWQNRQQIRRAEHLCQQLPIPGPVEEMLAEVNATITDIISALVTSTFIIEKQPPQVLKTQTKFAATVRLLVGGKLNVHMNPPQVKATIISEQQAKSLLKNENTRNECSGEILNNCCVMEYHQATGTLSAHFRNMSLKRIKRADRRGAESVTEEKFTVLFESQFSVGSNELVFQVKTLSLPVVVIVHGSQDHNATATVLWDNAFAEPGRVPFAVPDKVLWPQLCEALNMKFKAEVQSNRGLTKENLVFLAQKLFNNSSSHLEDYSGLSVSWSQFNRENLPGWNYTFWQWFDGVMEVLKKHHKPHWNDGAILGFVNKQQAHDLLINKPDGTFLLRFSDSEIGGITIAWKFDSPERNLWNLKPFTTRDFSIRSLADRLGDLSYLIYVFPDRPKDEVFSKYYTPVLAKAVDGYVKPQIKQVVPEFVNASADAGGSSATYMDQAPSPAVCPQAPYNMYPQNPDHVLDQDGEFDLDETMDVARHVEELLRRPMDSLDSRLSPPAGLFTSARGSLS
Description: […] in human HCCLM3 cells assessed as decrease in STAT3 phosphorylation at Y694 residue at 25 uM by Western blot analysis. Type of data set: cell-based.

Data set [3] deals with HCCLM3. Briefly: Antimigratory activity against human HCCLM3 cells assessed as inhibition of cell migration at 50 uM in presence of CXCL12. Type of data set: functional, cell-based.
Data set [4] deals with HepG2. Description: Induction of cell cycle arrest in human HepG2 cells assessed as accumulation sub-G1 phase at 50 uM incubated for 72 hrs by propidium iodide staining based flow cytometry analysis relative to control. It is filed as functional.
Data set [5] relates to HCCLM3. Briefly: Induction of apoptosis in human HCCLM3 cells assessed as decrease in Survivin expression at 25 uM by measured up to 48 hrs Western blot analysis. The note with it: time hrs <=48. It is filed as functional, cell-based.
The target of data set [6] is Signal transducer and activator of transcription 3 (Homo sapiens) (UniProt P40763). Description: Inhibition of STAT3 activation in human HCCLM3 cells assessed as decrease in STAT3 phosphorylation at Y705 residue at 25 uM by Western blot analysis. It is filed as cell-based. The note with it: time hrs <=12, TDE = time-dependent effect.
The nature of data set [7]: Induction of cell cycle arrest in human HCCLM3 cells assessed as accumulation sub-G1 phase at 50 uM incubated for 48 hrs by propidium iodide staining based flow cytometry analysis relative to control. It is filed as functional. In general terms: A flow cytometer gives signals particle by particle.
A short description of data set [8]: Induction of cell cycle arrest in human HCCLM3 cells assessed as accumulation sub-G1 phase at 50 uM incubated for 72 hrs by propidium iodide staining based flow cytometry analysis relative to control. It is filed as functional.
The subject of data set [9] is HCCLM3. Briefly: Induction of apoptosis in human HCCLM3 cells assessed as decrease in Bcl2 expression at 25 uM by measured up to 48 hrs Western blot analysis. It is filed as functional, cell-based. The note with it: time hrs <=48.
The subject of another data set is L02. Description: Cytotoxicity against human L02 cells assessed as cell viability measured by MTT assay. Type of data set: cell-based.
Data set [10] has as its target Signal transducer and activator of transcription 3 (Homo sapiens) (UniProt P40763). Briefly: Inhibition of STAT3 in human HCCLM3 cell lysate assessed as suppression of STAT3-DNA interaction at 25 uM by ELISA. The note with it: time hrs <=12, TDE = time-dependent effect. Type of data set: subcellular. (In an ELISA, binding on a coated surface is turned into a signal by an enzyme label.)

Data set [11] in a line: Induction of cell cycle arrest in human HCCLM3 cells assessed as accumulation sub-G1 phase at 50 uM incubated for 24 hrs by propidium iodide staining based flow cytometry analysis relative to control. It is filed as functional.
Data set [12] deals with HepG2. Description: Induction of cell cycle arrest in human HepG2 cells assessed as accumulation sub-G1 phase at 50 uM incubated for 24 hrs by propidium iodide staining based flow cytometry analysis relative to control. It is filed as functional.
The subject of data set [13] is HepG2. Description: Cytotoxicity against human HepG2 cells assessed as cell viability up to 50 uM measured upto 72 hrs by MTT assay. Type of data set: functional, cell-based. The note with it: dose microM <=50, time hrs <=72.
Data set [14] deals with HepG2. Briefly: Antimigratory activity against human HepG2 cells assessed as inhibition of cell migration at 50 uM. Type of data set: functional, cell-based.
The target of data set [15] is T1, Signal transducer and activator of transcription 5A (Homo sapiens). Briefly: […] in human HepG2 cells assessed as decrease in STAT3 phosphorylation at Y694 residue at 25 uM by Western blot analysis. It is filed as cell-based.
Data set [16] deals with HCCLM3. Briefly: Cytotoxicity against human HCCLM3 cells assessed as cell viability up to 50 uM measured upto 72 hrs by MTT assay. Type of data set: functional, cell-based. The note with it: dose microM <=50, time hrs <=72.
In data set [17] the test system is HCCLM3. Description: Antimigratory activity against human HCCLM3 cells assessed as inhibition of cell migration at 50 uM. Type of data set: functional, cell-based.
Data set [18] addresses Signal transducer and activator of transcription 3 (Homo sapiens) (UniProt P40763). Briefly: Inhibition of STAT3 activation in human HepG2 cells assessed as decrease in STAT3 phosphorylation at Y705 residue at 25 uM by Western blot analysis. It is filed as cell-based. The note with it: time hrs <=12, TDE = time-dependent effect.
For data set [19], the system named is HCCLM3. Briefly: Induction of apoptosis in human HCCLM3 cells assessed as decrease in Cyclin D1 expression at 25 uM by measured up to 48 hrs Western blot analysis. The note with it: time hrs <=48. Type of data set: functional, cell-based.
Data set [20] deals with Signal transducer and activator of transcription 3 (Homo sapiens) (UniProt P40763). Briefly: Inhibition of STAT3 in human HepG2 cell lysate assessed as suppression of STAT3-DNA interaction at 25 uM by ELISA. It is filed as subcellular. The note with it: time hrs <=12, TDE = time-dependent effect.
A short description of data set [21]: Cytotoxicity against human HCCLM3 cells assessed as reduction in cell viability measured upto 72 hrs by MTT assay. Type of data set: functional, cell-based. The note with it: HCCLM3, 72 h.
In data set [22] the test system is HepG2. Description: Antimigratory activity against human HepG2 cells assessed as inhibition of cell migration at 50 uM in presence of CXCL12. It is filed as functional, cell-based.
The subject of data set [23] is HepG2. Briefly: Cytotoxicity against human HepG2 cells assessed as reduction in cell viability measured upto 72 hrs by MTT assay. It is filed as functional, cell-based. The note with it: HepG2, 72 h.
Data set [24] concerns HCCLM3. Briefly: Antiinvasive activity in human HCCLM3 cells at 50 nM incubated for 8 hrs in presence of CXCL12 by crystal violet staining based assay. It is filed as functional, cell-based.
Data set [25] deals with HepG2. Description: Antiinvasive activity in human HepG2 cells at 50 nM incubated for 8 hrs in presence of CXCL12 by crystal violet staining based assay. Type of data set: functional, cell-based.
Data set [26] relates to HepG2. Briefly: Induction of cell cycle arrest in human HepG2 cells assessed as accumulation sub-G1 phase at 50 uM incubated for 48 hrs by propidium iodide staining based flow cytometry analysis relative to control. It is filed as functional.

Calls of active or inactive are those of the source. The calls are words filed in the database; no cut-off is given here.

In ChEMBL document CHEMBL4825749, “Pyrimidine-2,4-dione targets STAT3 signaling pathway to induce cytotoxicity in hepatocellular carcinoma cells” (Bioorg Med Chem Lett, 2021) one finds Activity, inhibition and IC50 data, which are given here for three compounds.

Sequence of Signal transducer and activator of transcription 3 (Homo sapiens) (P40763 whole entry): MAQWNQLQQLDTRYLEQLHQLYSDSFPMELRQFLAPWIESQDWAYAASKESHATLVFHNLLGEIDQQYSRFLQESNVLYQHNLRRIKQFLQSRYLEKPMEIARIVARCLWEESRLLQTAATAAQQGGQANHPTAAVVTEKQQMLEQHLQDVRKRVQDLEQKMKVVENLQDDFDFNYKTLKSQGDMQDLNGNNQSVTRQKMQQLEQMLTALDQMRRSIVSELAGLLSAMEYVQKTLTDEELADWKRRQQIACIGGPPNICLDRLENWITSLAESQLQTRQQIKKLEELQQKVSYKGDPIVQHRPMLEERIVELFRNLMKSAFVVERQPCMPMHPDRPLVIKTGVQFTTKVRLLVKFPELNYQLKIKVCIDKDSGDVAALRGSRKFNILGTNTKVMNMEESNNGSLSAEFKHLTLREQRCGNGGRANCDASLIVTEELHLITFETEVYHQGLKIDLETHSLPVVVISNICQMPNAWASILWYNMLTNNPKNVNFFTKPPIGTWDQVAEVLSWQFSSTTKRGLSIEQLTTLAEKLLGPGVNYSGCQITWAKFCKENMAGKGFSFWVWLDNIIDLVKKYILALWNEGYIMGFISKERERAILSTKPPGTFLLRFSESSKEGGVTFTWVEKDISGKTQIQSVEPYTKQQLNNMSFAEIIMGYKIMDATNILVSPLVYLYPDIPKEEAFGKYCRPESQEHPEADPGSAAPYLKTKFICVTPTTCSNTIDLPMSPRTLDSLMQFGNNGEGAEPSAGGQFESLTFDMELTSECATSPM

As a reminder, the IC50 is the concentration at which inhibition is half-maximal. In the case of `Cn1c(=O)cc(-c2cccc3ccccc23)[nH]c1=O`, the result in the data set on HCCLM3 [1], in the data set on HCCLM3 [3], in the data set on HCCLM3 [5], in the data set on HCCLM3 [9], with HepG2 [14] and in the data set with HCCLM3 [17] was Active. Also, the outcome with HCCLM3 [19], in the data set with HepG2 [22], in the data set on HCCLM3 [24] and in the data set on HepG2 [25] was Active. The inhibition result in [2] and in data set [15] was “inactive” throughout. The Activity in the data set with HepG2 [4] was 67.3%; in data set [7] it was 46.5%; in data set [8], 67.3%; with L02 it was “Toxic”; in data set [11], 39.3%; with HepG2 [12] it was 39.3%. In addition, the Activity entry is “Dose-Dependent Effect” with HepG2 [13], “Dose-Dependent Effect” in the data set on HCCLM3 [16] and 46.5% in the data set on HepG2 [26]. Also, the inhibition result in [6], in data set [10], in data set [18] and in data set [20] was “Tde” each time. Besides, the IC50 was 42.6 µM in data set [21] and 20.9 µM in the data set with HepG2 [23].
For the compound `CC(C)Oc1cccc(-c2cc(=O)n(C)c(=O)[nH]2)c1`, the IC50 came to 41.5 µM in data set [21] and 47.6 µM with HepG2 [23].
As for `C[C@H](NC(=O)/C(C#N)=C/c1cccc(Br)n1)c1ccccc1`, the Activity entry in the data set with HepG2 [13] and with HCCLM3 [16] was “Dose-Dependent Effect” each time.
